We go through 14 molecules from patent publication US10975092B2, “Pyrimidine seven-membered-ring compounds, preparation method therefor, pharmaceutical composition thereof, and uses thereof” (priority 2016, dated 2021).

The target in one assay is T1, recombinant MST2 (Homo sapiens, UniProt Q13188).
T1 sequence (Q13188 1-491): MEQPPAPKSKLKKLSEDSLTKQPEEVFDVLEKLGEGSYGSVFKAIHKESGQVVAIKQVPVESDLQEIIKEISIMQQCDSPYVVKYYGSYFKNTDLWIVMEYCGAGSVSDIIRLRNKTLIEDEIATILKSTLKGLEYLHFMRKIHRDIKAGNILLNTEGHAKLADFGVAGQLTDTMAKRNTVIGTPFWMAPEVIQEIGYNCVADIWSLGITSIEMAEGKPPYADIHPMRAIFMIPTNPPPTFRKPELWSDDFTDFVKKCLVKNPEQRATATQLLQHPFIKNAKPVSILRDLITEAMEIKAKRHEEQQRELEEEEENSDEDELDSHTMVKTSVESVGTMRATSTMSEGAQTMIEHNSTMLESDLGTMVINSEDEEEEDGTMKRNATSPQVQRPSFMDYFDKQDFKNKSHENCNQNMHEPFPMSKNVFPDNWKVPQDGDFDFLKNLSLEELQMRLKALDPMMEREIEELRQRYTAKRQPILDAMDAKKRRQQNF
Briefly: Inhibition of Mst2 kinase activity, ELISA of Mob1 substrate phosphorylation. Type of assay: biochemical. Particulars: MST2 IC50, 3.7 nM recombinant MST2; ATP 11.2 gIVI; GST-Mob1a substrate; 30° C. 15 min. As to the method:
(§1) We adopt a specific ELISA (Enzyme-linked immunosorbent assay) assay for measuring the biochemical activity (FIG. 1).
(§2) Specific methods are as follows:
(§3) 1. The substrate was diluted with purified recombinant GST-Mobla 200 nM in coating buffer, added to 96-well plates (Nalge Nunc International, Denmark), coated for overnight at 4° C., washed nextday three times with rinsing solution;
(§4) a. A kinase reaction buffer;
(§5) c. compound (dissolved in DMSO, containing not more than 1% of the total volume of the reaction);
(§6) Control Group Containing No ATP or Kinase;
(§7) 3. The reaction solution was poured to terminate the kinase reaction, and washed 4 times with rinse solution, 5 minutes each wash;
(§8) 4. Add 200 μL, per well of the blocking solution, shaking for 1 hour at room temperature, washed 4 times with rinsing solution;
(§9) 7. Add TMB chromogenic solution (Biolegend, Cat.B200119, B200120). After the color reaction to a certain extent, add to each well 100 μL, of 2M H2SO4 to terminate the reaction;
(§10) 8. […] Each set of three parallel experiments, the negative control is a solution with a final concentration of 1% DMSO, the control is the reaction system containing no ATP. […] The reagents are as follows: Coating Buffer: 0.1M NaHCO 3, 0.033M Na2CO3, pH 9.5 Rinse solution: 0.05% Tween-20 in PBS Reaction buffer: 40 mM of Hepes-NaOH (pH 7.4), 10 mM of MgCl2, 1 mM of dithiothreitol (DTT), 1 mM of NaF, 1 mM of Na3VO4, 1 mM of β-glycerophosphate Blocking solution: 1% BSA dissolved in PBS Compound Inhibition of Kinase Activity
On the technique in general: In an ELISA, binding on a coated surface is turned into a signal by an enzyme label.

The target in another assay is T2, recombinant Mst1 (Homo sapiens, UniProt Q13043).
T2 sequence (Q13043 1-487): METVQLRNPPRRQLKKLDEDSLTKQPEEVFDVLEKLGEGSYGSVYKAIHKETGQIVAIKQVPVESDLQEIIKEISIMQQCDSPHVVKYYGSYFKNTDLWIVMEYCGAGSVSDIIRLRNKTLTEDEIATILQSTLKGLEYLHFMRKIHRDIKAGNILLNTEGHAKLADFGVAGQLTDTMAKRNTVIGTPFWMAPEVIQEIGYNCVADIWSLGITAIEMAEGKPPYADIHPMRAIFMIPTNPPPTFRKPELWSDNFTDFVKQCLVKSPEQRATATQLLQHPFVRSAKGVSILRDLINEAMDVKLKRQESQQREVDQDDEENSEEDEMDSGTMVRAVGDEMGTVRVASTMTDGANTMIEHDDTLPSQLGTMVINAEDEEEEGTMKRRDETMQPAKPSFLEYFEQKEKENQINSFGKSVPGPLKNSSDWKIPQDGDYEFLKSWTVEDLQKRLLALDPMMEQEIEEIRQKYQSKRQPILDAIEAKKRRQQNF
Briefly: Inhibition of Mst1 kinase activity, ELISA of Mob1 substrate phosphorylation. Particulars: MST1 IC50, recombinant Mst1 11 nM; ATP 6.7 gIVI; GST-Mob1a substrate; 30° C. 15 min. The assay is classed as biochemical. As to the method:
as §1, §2, §3, §4, §5, §6, §7, §8, §9, §10

Assay [1] has as its system DSS-treated wild type mice. Briefly: Intestinal repair in DSS-induced intestinal injury mouse model. Type of assay: in vivo. How it is done: 8-10 week old wild type mice were fed with water containing 2.5% DSS (MW 36-50 kDa, Cat. #160110, MP Biochemical) for 7 days, then switch to conventional drinking water. […] Throughout the experiment, the body weight of mice was weighed every day at a fixed time and calculate the ratio of the weight and the weight before DSS feeding. […] The DAI values were calculated as follows: the integrity of the stool (value 0-3, where 0: full dried fecal pellets; 1: soft particles; 2: loose, wet stool; 3: diarrhea); detection of intestinal bleeding with tolidine (o-tolidine) (value 0-3, where 0: detection reagent was added for 2 minutes, sample no color; 1: detection reagent was added, the sample within 10 seconds from light blue to blue; 2: after adding detection reagents, samples gradually changed from light brown to brown clear blue and a visible color in the feces; 3: after adding detection reagents, samples rapidly becoming brownish blue, significant blood and bleeding in a anus and feces. The body weight change in mice and DAI values were recorded for indicating the degree of intestinal injury repair.

The test system of assay [2] is wild type mice after hepatectomy. Briefly: Liver regeneration after partial liver resection (hepatectomy) in mice. The assay is classed as in vivo. To be noted: about 2/3 hepatectomy, 1 mg/kg body weight intraperitoneally twice daily, 1-7 days. How it is done: Student's t-test in comparing drug-treated group and control group, *P<0.05, ***P<0.001.
8-10 week old wild type mice were anesthetized with intraperitoneal pentobarbital (80 mg/kg body weight). Hepatectomy was performed to remove left rear and intermediate liver lobes, about ⅔ of the entire liver. […] Mice after hepatectomy of 1, 2, 3, 4, 5, 6, or 7 days were sacrificed. Mouse body weight and liver weight are recorded and used to calculate the weight ratio of the liver (FIG. 2a). Liver tissue section used in immunohistochemistry to detect proliferating hepatocytes (of Ki67-positive) percentage.

Molecules are shown by their SMILES.

Regarding `CN1C(=O)c2sccc2N(C)c2nc(Nc3ccc(S(N)(=O)=O)cc3)ncc21` [II-1], the IC50 came out at 40 nM at recombinant MST2 and 140 nM on recombinant Mst1. For the same molecule, in assay [1] (2.5% DSS in water 7 days, 1 mg/kg body weight injected once per day), the “Intestinal repair in DSS-induced intestinal injury model” value is “promotes intestinal repair”. Also, the “Body weight of DSS-treated mice” value in assay [1] (2.5% DSS in water 7 days, 1 mg/kg once per day, FIG. 3a) was “significantly increase”. Further, the “Intestinal injury clinical symptoms (disease activity index, DAI)” value in assay [1] (2.5% DSS in water 7 days, 1 mg/kg once per day, FIG. 3b) is listed as “slow the intestinal injury clinical symptoms”. In addition, the “Yap activity in intestinal epithelial cells (immunohistochemical staining)” value in assay [1] (day 8 after DSS water feeding, 1 mg/kg once per day, FIG. 3c) was “increases Yap activity”. In addition, the “Epithelial repair and cell proliferation (BrdU and Ki67 positive cells in intestinal tissue)” value in assay [1] (day 8 after DSS water feeding, 1 mg/kg once per day, FIG. 3c-e) was “promote epithelial repair and cell proliferation”. Moreover, the “Liver regeneration after partial liver resection (liver/body weight ratio, Ki67-positive hepatocytes)” value in assay [2] is on record as “Effective in Promoting Liver Regeneration”.

Turning to `CN1CCN(C(=O)c2ccc(Nc3ncc4c(n3)N(C)c3ccsc3C(=O)N4C)cc2)CC1` [II-17], the results for the IC50 at recombinant MST2 and at recombinant Mst1 were 2510 nM and 610 nM, respectively.

For the molecule `CN1C(=O)c2sccc2N(C)c2nc(Nc3ccc(NC(=O)CCl)cc3)ncc21` [II-18], the figures for the IC50 at recombinant MST2 and on recombinant Mst1 were 13000 nM and 3340 nM, respectively.

Take `CN1C(=O)c2sccc2N(C)c2nc(Nc3ccc(NC(=O)CBr)cc3)ncc21` [II-19]: the IC50 came to 12600 nM on recombinant MST2 and 3030 nM at recombinant Mst1.

As to `CN1CCC(n2cc(Nc3ncc4c(n3)N(C)c3ccsc3C(=O)N4C)cn2)CC1` [II-20], the figures for the IC50 on recombinant MST2 and on recombinant Mst1 were 2320 nM and 110 nM, respectively.

As to `CN1CCN(c2ccc(Nc3ncc4c(n3)N(C)c3ccsc3C(=O)N4C)cc2)CC1` [II-21], the results for the IC50 on recombinant MST2 and on recombinant Mst1 were 3100 nM and 250 nM, respectively.

On to `C=CC(=O)Nc1ccc(Nc2ncc3c(n2)N(C)c2ccsc2C(=O)N3C)cc1` [II-23], for which the results for the IC50 at recombinant MST2 and at recombinant Mst1 were 4760 nM and 770 nM, respectively.

Turning to `CN1CCN(C2CCN(C(=O)c3ccc(Nc4ncc5c(n4)N(C)c4ccsc4C(=O)N5C)cc3)CC2)CC1` [II-24], the values for the IC50 at recombinant MST2 and at recombinant Mst1 were 2250 nM and 220 nM, respectively.

Take `CN1C(=O)c2sccc2N(C)c2nc(Nc3ccc(OC(=O)CCl)cc3)ncc21` [II-25]: the IC50 came out at 2240 nM on recombinant MST2 and 580 nM at recombinant Mst1.

With `C=CS(=O)(=O)Nc1ccc(Nc2ncc3c(n2)N(C)c2ccsc2C(=O)N3C)cc1` [II-26], the IC50 came out at 410 nM on recombinant MST2 and 820 nM at recombinant Mst1.

For the molecule `CN1C(=O)c2sccc2N(C)c2nc(Nc3cn[nH]c3)ncc21` [II-28], the IC50 on recombinant MST2 came to 360 nM; on recombinant Mst1, 540 nM.

As for `CN1C(=O)c2sccc2N(C)c2nc(Nc3cnn(C(=O)CCl)c3)ncc21` [II-30], the IC50 on recombinant MST2 was determined as 440 nM; at recombinant Mst1 it was 810 nM.

For `CN1C(=O)c2cccc3c2N(CC3)c2nc(Nc3ccc(NS(C)(=O)=O)cc3)ncc21` [IV-1], the IC50 at recombinant MST2 came out at 3970 nM; on recombinant Mst1 it was 6070 nM.

In the case of `CN1C(=O)c2cccc3c2N(CC3)c2nc(Nc3ccc(S(N)(=O)=O)cc3)ncc21` [IV-3], the IC50 worked out at 1610 nM at recombinant MST2 and 430 nM on recombinant Mst1.

One may read the IC50 as the concentration that inhibits the measured activity by half.
